system: Seeds of Lettuce R. (Super-Jericho); assay: Filter paper bioassay with lettuce seeds: germination and early plant development, Minimal Effective Concentration (MEC); format: in vivo; settings: lettuce seeds on filter paper, 0 to 1 mmol/l, visually assessed after 6 days
In short: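 Non-sterilized Super-Jericho lettuce seeds, 10 per dish, on filter paper wetted with aqueous test solution at 0–1 mmol/l. Kept 48 h dark, then 4 days at 6/18 dark/light. MEC is the lowest concentration causing no germination or radicle/shoot malformation by visual scoring at day 6; at least two repeats.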

| Molecule | Score (activity score of Minimal Effective Concentration, MEC) |
| --- | --- |
| 2-(2,5-dichlorothiophen-3-yl)-2,2-difluoroacetamide [compound 5636] | Strong (0.01 mM) |
| [6-chloro-5-(trifluoromethyl)pyridin-2-yl](difluoro)acetic acid [compound 6671] | Strong (0.01 mM) |
| O=C(O)C(F)(F)c1nc(Cl)sc1F [compound 5751, (2-chloro-5-fluoro-1,3-thiazol-4-yl)(difluoro)acetic acid] | strong.strong |
| ethyl 2-(2-chloro-1,3-thiazol-4-yl)-2,2-difluoroacetate [compound 5784] | very strong |
| N#Cc1cscc1C(F)(F)C(=O)O [compound 5779, (4-cyanothiophen-3-yl)(difluoro)acetic acid] | Strong (0.01 mM) |
| O=C(OCc1ccccc1)C(F)(F)c1csc(Cl)n1 [compound 5762, benzyl (2-chloro-1,3-thiazol-4-yl)(difluoro)acetate] | very strong |
| O=C(O)/C(F)=C(\F)c1ccc(Br)nc1 [compound 6638, (2E)-3-(6-bromopyridin-3-yl)-2,3-difluoroprop-2-enoic acid] | Moderate (0.1 mM) |
| benzyl (6-bromopyridin-2-yl)(difluoro)acetate [compound 6646] | Strong (0.01 mM) |
| difluoro(6-fluoropyridin-2-yl)acetic acid [compound 6664] | Strong (0.01 mM) |
| O=C(O)/C=C/c1sc(Cl)nc1Cl [compound 5622, (2E)-3-(2,4-dichloro-1,3-thiazol-5-yl)prop-2-enoic acid] | Moderate (0.1 mM) |
| 2-(5-chlorothiophen-3-yl)-2,2-difluoroacetic acid [compound 5625] | Strong (0.01 mM) |
| O=C(O)Cc1cc(Br)nc(Br)c1 [compound 689, 2-(2,6-dibromopyridin-4-yl)acetic acid] | Moderate (0.1 mM) |
| (2E)-3-(2-bromopyridin-4-yl)-N-(4-hydroxyphenyl)prop-2-enamide [compound 6610] | Moderate (0.1 mM) |
| NC(=O)CCCc1cc(Cl)sc1Cl [compound 5600, 4-(2,5-dichlorothiophen-3-yl)butanamide] | Weak (Higher than 0.1 mM) |
| 2-(2-chloro-1,3-thiazol-4-yl)-2,2-difluoroethan-1-ol [compound 5724] | Moderate (0.1 mM) |
| CCOC(=O)Cc1nc(Br)sc1C [compound 5661, ethyl 2-(2-bromo-5-methyl-1,3-thiazol-4-yl)acetate] | Moderate (0.1 mM) |

| Molecule | Score (activity score of Minimal Effective Concentration, MEC) |
| --- | --- |
| ethyl 2-(2-bromo-1,3-thiazol-4-yl)acetate [compound 5663] | Moderate (0.1 mM) |
| CCOC(=O)C(F)(F)c1csc(C(F)(F)F)n1 [compound 5781] | Strong (0.01 mM) |
| (2-bromopyridin-4-yl)acetic acid [compound 678] | Strong (0.01 mM) |
| O=C(O)C(F)(F)c1cccc(Cl)n1 [compound 6667, (6-chloropyridin-2-yl)(difluoro)acetic acid] | Strong (0.01 mM) |
| CC(=O)Nc1nc(Cl)sc1Cl [compound 5618, N-(2,5-dichloro-1,3-thiazol-4-yl)acetamide] | Moderate (0.1 mM) |
| NCCSCCc1ccsc1 [compound 5603, 2-{[2-(thiophen-3-yl)ethyl]sulfanyl}ethan-1-amine] | Weak (Higher than 0.1 mM) |
| CS(=O)(=O)NCCNCCc1cc(Cl)sc1Cl [compound 5723, N-(2-{[2-(2,5-dichlorothiophen-3-yl)ethyl]amino}ethyl)methane sulfonamide] | Strong (0.01 mM) |
| 2-(2,6-dichloropyridin-4-yl)-2,2-difluoroacetic acid [compound 6628] | Weak (Higher than 0.1 mM) |
| Cl.Nc1nc2c(s1)CCCC2C(=O)O (stereo not drawn) [compound 5673, 2-amino-4567-tetrahydro-1,3-benzothiazole-4-carboxylic acid hydrochloride] | <moderate |
| NNC(=O)Cc1csc(Cl)n1 [compound 5704, 2-(2-chloro-1,3-thiazol-4-yl)acetohydrazide] | Moderate (0.1 mM) |
| CONCCc1cc(Cl)sc1Cl [compound 5670, 2-(2,5-dichlorothiophen-3-yl)-N-methoxyethan-1-amine] | Moderate (0.1 mM) |
| 2-(2,5-dichlorothiophen-3-yl)-2-oxoacetic acid [compound 5631] | Weak (Higher than 0.1 mM) |
| O=C(O)C(=O)Cc1ccnc(Br)c1 [compound 6611, 3-(2-bromopyridin-4-yl)-2-oxopropanoic acid] | Weak (Higher than 0.1 mM) |
| (2-bromopyridin-4-yl)(oxo)acetic acid [compound 6626] | Moderate (0.1 mM) |
| O=C(O)c1ccc2ccnc(Cl)c2c1 [compound 6627, 1-chloroisoquinoline-7-carboxylic acid] | Moderate (0.1 mM) |

system: Romaine lettuce (Lactuca sativa L.) plants; assay: Post-emergence herbicidal activity on potted Romaine lettuce plants (soil or foliar application); format: in vivo; settings: foliar application, lettuce at 2 to 3 leaves, two weeks after treatment
Procedure: The tests were performed on Romaine lettuce (Lactuca sativa L.) plants at the stage 2 to 3 leaves. The plants were grown in mini-pots packed with soil, dimensions 2×2×5 cm, one plant per mini-pot. Test compounds were dissolved in 0.1% aqueous solution water solution of Silwet adjuvant to final concentrations ranging from 0 (Control) to 0.0001%. The test compounds were applied on soil (1 ml per pot) or foliar with airbrush (0.1 ml per pot). Each concentration was tested on 20 plants. Two weeks after the treatment the herbicidal effects of the respective test material were visually evaluated (aboveground part and roots. Then the aboveground part of the plants was neatly cut and weighed (wet weight) to assess the growth inhibition caused by the test compound. The growth inhibition (GI) was calculated as following: […]
Where Mt and Mc are median wet weight of treated and control plants, respectively. In the context of the invention, the herbicidal effect was assessed by concentration of the compound causing more than 85% of Growth Inhibition (GI) or irreversible damage of the plants (Table 3). Herbicidal activity of selected DHAAs is summarized in Table 4 (soil application) and Table 5 (Foliar application).

| Molecule | Score (test material causing more than 85% of Growth Inhibition or irreversible plant damage) |
| --- | --- |
| 2-(5-chlorothiophen-3-yl)-2,2-difluoroacetic acid [compound 5625] | strong (0.01 to 0.05) |
| O=C(Cc1cc(Cl)sc1Cl)OCc1ccccc1 [compound 5669, benzyl 2-(2,5-dichlorothiophen-3-yl)acetate] | strong (0.01 to 0.05) |
| CCOC(=O)Cc1nc(Br)sc1C [compound 5661, ethyl 2-(2-bromo-5-methyl-1,3-thiazol-4-yl)acetate] | moderate (0.5) |
| ethyl 2-(2-bromo-1,3-thiazol-4-yl)acetate [compound 5663] | strong (0.01 to 0.05) |
| CCOC(=O)C(F)(F)c1csc(C(F)(F)F)n1 [compound 5781] | strong (0.01 to 0.05) |

same assay, conditions: soil application, lettuce at 2 to 3 leaves, two weeks after treatment

| Molecule | Score (test material causing more than 85% of Growth Inhibition or irreversible plant damage) |
| --- | --- |
| [6-chloro-5-(trifluoromethyl)pyridin-2-yl](difluoro)acetic acid [compound 6671] | strong (0.01 to 0.05) |
| O=C(O)/C(F)=C(\F)c1ccc(Br)nc1 [compound 6638, (2E)-3-(6-bromopyridin-3-yl)-2,3-difluoroprop-2-enoic acid] | moderate (0.5) |
| benzyl (6-bromopyridin-2-yl)(difluoro)acetate [compound 6646] | strong (0.01 to 0.05) |
| difluoro(6-fluoropyridin-2-yl)acetic acid [compound 6664] | strong (0.01 to 0.05) |
| 2-(5-chlorothiophen-3-yl)-2,2-difluoroacetic acid [compound 5625] | strong (0.01 to 0.05) |
| O=C(O)Cc1cc(Br)nc(Br)c1 [compound 689, 2-(2,6-dibromopyridin-4-yl)acetic acid] | moderate (0.5) |
| CC(=O)NCCc1cc(Cl)sc1Cl [compound 5629, N-[2-(2,5-dichlorothiophen-3-yl)ethyl]acetamide] | moderate (0.5) |
| (2E)-3-(2-bromopyridin-4-yl)-N-(4-hydroxyphenyl)prop-2-enamide [compound 6610] | moderate (0.5) |
| NC(=O)CCCc1cc(Cl)sc1Cl [compound 5600, 4-(2,5-dichlorothiophen-3-yl)butanamide] | moderate (0.5) |
| 2-(2-chloro-1,3-thiazol-4-yl)-2,2-difluoroethan-1-ol [compound 5724] | strong (0.01 to 0.05) |
| CC(=O)NCCc1nc(Cl)sc1Cl [compound 5650, N-[2-(2,5-dichloro-1,3-thiazol-4-yl)ethyl]acetamide] | moderate (0.5) |
| O=C(Cc1cc(Cl)sc1Cl)OCc1ccccc1 [compound 5669, benzyl 2-(2,5-dichlorothiophen-3-yl)acetate] | strong (0.01 to 0.05) |
| COC(=O)C(Cl)c1cc(Cl)sc1Cl (stereo not drawn) [compound 5656, methyl 2-chloro-2-(2,5-dichlorothiophen-3-yl)acetate] | moderate (0.5) |
| CCOC(=O)Cc1nc(Br)sc1C [compound 5661, ethyl 2-(2-bromo-5-methyl-1,3-thiazol-4-yl)acetate] | moderate (0.5) |
| ethyl 2-(2-bromo-1,3-thiazol-4-yl)acetate [compound 5663] | moderate (0.5) |
| (2-bromopyridin-4-yl)acetic acid [compound 678] | weak (1.0) |
| O=C(O)C(F)(F)c1cccc(Cl)n1 [compound 6667, (6-chloropyridin-2-yl)(difluoro)acetic acid] | strong (0.01 to 0.05) |
| CONCCc1cc(Cl)sc1Cl [compound 5670, 2-(2,5-dichlorothiophen-3-yl)-N-methoxyethan-1-amine] | moderate (0.5) |

system: Seeds of Lettuce R. (Super-Jericho); assay: Filter paper bioassay with lettuce seeds: germination, Fully Effective Concentration (FEC); format: in vivo; settings: lowest concentration mostly preventing lettuce seed germination, assessed after 6 days
Text: Materials: Seeds of Lettuce R. (Super-Jericho, non-sterilized) were obtained from Ben Shahar Moshe Ltd., 99% purity. The test compounds listed in the Table 2 below were synthetized de novo or purchased from different vendors.
Filter Paper Bioassays with Lettuce seeds: The protocol is following Bertin et al. 2009 and Movellan et al. 2014 with specified modifications as described below.
Seeds were placed on Whatman no. 1 filter paper (Whatman, Middlesex, U.K.) in Petri dishes (10 seeds per plate) with 2.0 ml of aqueous solution of a test material in concentration ranged from 0 (control) to 1 mmol/l were placed in a tray tilted at 45°. The trays were kept in dark for 48 hours and then transferred to the growth chamber with 6/18 dark/light cycle for 4 days. Each experiment was performed at least with two repeats.
The development of plants' radicle and shoots were visually assessed 6 days after the beginning of the test to determine Fully Effective Concentration (FEC) of a test material. In the context of the invention, FED is defined as the lowest concentration level of a test material that mostly preventing seeds germination.

| Molecule | FEC (Fully Effective Concentration) [mM] |
| --- | --- |
| 2-(2,5-dichlorothiophen-3-yl)-2,2-difluoroacetamide [compound 5636] | 0.100 |
| O=C(O)C(F)(F)c1nc(Cl)sc1F [compound 5751, (2-chloro-5-fluoro-1,3-thiazol-4-yl)(difluoro)acetic acid] | 0.100 |
| ethyl 2-(2-chloro-1,3-thiazol-4-yl)-2,2-difluoroacetate [compound 5784] | 0.050 |
| N#Cc1cscc1C(F)(F)C(=O)O [compound 5779, (4-cyanothiophen-3-yl)(difluoro)acetic acid] | 1.000 |
| O=C(OCc1ccccc1)C(F)(F)c1csc(Cl)n1 [compound 5762, benzyl (2-chloro-1,3-thiazol-4-yl)(difluoro)acetate] | 0.010 |
| O=C(O)/C=C/c1sc(Cl)nc1Cl [compound 5622, (2E)-3-(2,4-dichloro-1,3-thiazol-5-yl)prop-2-enoic acid] | 1.000 |
